Data published in patent US7700606B2, “Imidazole amines as inhibitors of β-secretase” (Wyeth LLC, priority 2006, dated 2010).
pIC50: −log10 of the molar value.

Assays:
human BACE2 = target: T1, human BACE2 (Homo sapiens, UniProt Q9Y5Z0); assay: Fluorescent kinetic assay for human recombinant BACE 2 (WABC-6 peptide substrate); type: biochemical; conditions: for pIC50: 1.5 nM enzyme, 25 μM substrate, pH 4.5, room temperature
T1 sequence (Q9Y5Z0 63-518): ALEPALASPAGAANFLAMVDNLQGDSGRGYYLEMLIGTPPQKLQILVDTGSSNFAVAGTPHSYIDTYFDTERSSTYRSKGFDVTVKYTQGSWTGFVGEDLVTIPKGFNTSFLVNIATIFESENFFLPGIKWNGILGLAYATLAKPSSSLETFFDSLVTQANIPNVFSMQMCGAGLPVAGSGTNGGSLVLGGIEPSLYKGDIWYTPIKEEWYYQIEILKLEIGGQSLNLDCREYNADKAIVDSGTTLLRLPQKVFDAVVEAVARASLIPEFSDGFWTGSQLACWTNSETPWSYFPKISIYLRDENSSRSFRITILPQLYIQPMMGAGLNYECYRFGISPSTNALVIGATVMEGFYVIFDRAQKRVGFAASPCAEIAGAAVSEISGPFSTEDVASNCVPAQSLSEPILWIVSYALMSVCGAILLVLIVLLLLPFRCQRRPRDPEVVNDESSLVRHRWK
Description: (§1) Evaluation of the Enzyme Activity of Test Compounds and the Inhibition of hBACE1, MuBACE1 and hBACE2 by Test Compounds
Assay Conditions: 10 nM human BACE1 (or 10 nM Murine BACE1, 1.5 nM human BACE2) 25 μM substrate (WABC-6, MW 1549.6, from AnaSpec); final buffer conditions: 50 mM Na-Acetate, pH 4.5, 0.05% CHAPS, 25% PBS; temperature: room temperature; reagent information: Na-Acetate: Aldrich, Cat.#24,124-5 CHAPS: Research Organics, Cat. #1304C 1× PBS: Mediatech (Cellgro), Cat#21-031-CV; peptide substrate AbzSEVNLDAEFRDpa: AnaSpec, Peptide Name: WABC-6; determination of stock substrate (AbzSEVNLDAEFRDpa) concentration: a 25 mM stock solution in dimethyl sulfoxide (DMSO) is prepared using the peptide weight and MW and diluted to 25 μM. The concentration is determined by absorbance at 354 nm using an extinction coefficient ε of 18172 M^−1 cm^−1, The substrate stock is stored in small aliquots at −80° C. [Substrate Stock]=ABS^354 nm*10^6/18172 (in mM)
Calculation of % Inhibition: % Inhibition=100*(1−vi/v0) • (vi=substrate cleavage rate in the presence of inhibitor, • v0=substrate cleavage rate in the absence of inhibitor) IC50 Determination: % Inhibition=[(B*IC50^n)+(100*I0^n)]/(IC50^n+I0^n), Fluorescent Kinetic Assay for Human Recombinant BACE 2
This assay is used to provide kinetic and selectivity parameters for the analyses of the tested compounds.
Materials and methods: final assay conditions: 10 nM human BACE1 (or 10 nM Murine BACE1, 1.5 nM human BACE2) 25 μM Substrate (WABC-6, MW 1549.6, from AnaSpec). Final buffer conditions: 50 mM Na-Acetate, pH 4.5, 0.05% CHAPS, 25% PBS. Temperature: room temperature. Reagent Information: Na-Acetate: Aldrich, Cat.#24,124-5 CHAPS: Research Organics, Cat. #1304C 1× PBS: Mediatech (Cellgro), Cat#21-031-CV Peptide Substrate AbzSEVNLDAEFRDpa: AnaSpec, Peptide Name: WABC-6
Determination of stock substrate (AbzSEVNLDAEFRDpa) concentration: A 25 mM stock solution in DMSO is prepared using the peptide weight and MW, and diluted to 25 μM. The concentration is determined by absorbance at 354 nm using an extinction coefficient ε of 18172 M^−1cm^−1. The substrate stock is stored in small aliquots at −80° C. [Substrate Stock]=ABS^354 nm*10^6/18172 (in mM)
Determination of stock enzyme concentration: The stock concentration of each enzyme is determined by ABS at 280 nm using ε of 64150 M^−1cm^−1 for hBACE1 and MuBACE1, 62870 M^−1cm^−1 for hBACE2 in 6 M guanidinium hydrochloride (from Research Organics, Cat. #5134G-2), pH 6. (The extinction coefficient ε^280 nm for each enzyme is calculated based on known amino acid composition and published extinction coefficients for Trp ([…]) and Tyr ([…]) residues (Anal. Biochem. 182, 319-326).)
Dilution and Mixing Steps: Total Reaction Volume: 100 μL • 1. 2× inhibitor dilutions in buffer A (66.7 mM Na-Acetate, pH 4.5, 0.0667% CHAPS) are prepared, • 2. 4× enzyme dilution in buffer A (66.7 mM Na-Acetate, pH 4.5, 0.0667% CHAPS) are prepared, • 3. 100 μM substrate dilution in 1× PBS, 50 μL 2× Inhibitor and 25 μL 100 μM substrate are added to each well of 96-well plate (from DYNEX Technologies, VWR #: 11311-046), then immediately 25 μL 4× enzyme is added to the inhibitor and substrate mixer and the fluorescence readings are initiated.
Fluorescence Readings: Readings at λex 320 nm, λem 420 nm are taken every 40-sec for 30 min at room temperature and to determine the linear slope for substrate cleavage rate (vi).
Analysis of calculation of % inhibition: % Inhibition=100*(1−vi/v0) • vi=substrate cleavage rate in the presence of inhibitor, • v0=substrate cleavage rate in the absence of inhibitor) • IC50 Determination: % Inhibition=((B*IC50^n)+(100*I0^n))/(IC50^n+I0^n),
Unless otherwise noted, the IC50 value represents the value obtained at […].

human BACE1 = human BACE1 (Homo sapiens, UniProt P56817); assay: Fluorescent kinetic enzyme assay, inhibition of BACE1 (WABC-6 peptide substrate); type: biochemical; conditions: 10 nM enzyme, 25 μM substrate, pH 4.5, room temperature
Description: as §1
Dilution and mixing steps: total reaction volume: 100 μL • 1. […] 100 μM substrate dilution in 1× PBS is prepared, • 4.
Fluorescence Readings: Readings at λex 320 nm and λem 420 nm are taken every 40-sec for 30 min at room temperature to determine the linear slope for substrate cleavage rate (vi).

Chain of human BACE1 (P56817 46-501): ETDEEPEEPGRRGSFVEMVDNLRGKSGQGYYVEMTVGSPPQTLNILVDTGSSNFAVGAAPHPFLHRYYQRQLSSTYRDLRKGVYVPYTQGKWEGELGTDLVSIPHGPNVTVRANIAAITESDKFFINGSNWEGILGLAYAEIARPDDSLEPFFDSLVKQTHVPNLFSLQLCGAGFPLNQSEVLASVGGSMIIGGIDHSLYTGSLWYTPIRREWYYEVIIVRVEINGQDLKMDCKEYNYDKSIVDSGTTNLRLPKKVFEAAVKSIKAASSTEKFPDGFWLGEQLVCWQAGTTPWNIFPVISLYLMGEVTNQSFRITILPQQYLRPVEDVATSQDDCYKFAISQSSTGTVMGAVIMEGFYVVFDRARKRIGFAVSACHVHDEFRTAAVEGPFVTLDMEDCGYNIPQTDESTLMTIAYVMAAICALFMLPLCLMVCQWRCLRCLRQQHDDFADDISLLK

SMILES	pIC50 (human BACE2)	melting point [°C]	pIC50 (human BACE1)	inhibition at 25 µM (human BACE2) [%]
CCn1cc(C2(c3cccc(-c4cccnc4F)c3)N=C(N)N3CCCN=C32)cn1 (stereo not drawn) [Example 3, 8-(1-Ethyl-1H-pyrazol-4-yl)-8-[3-(2-fluoropyridin-3-yl)phenyl]-2,3,4,8-tetrahydroimidazo[1,5-a]pyrimidin-6-amine]	5.45	91 to 115	7.05	–
NC1=NC(c2cccc(-c3cccnc3F)c2)(c2cnn(CC(F)(F)F)c2)C2=NCCCN12 (stereo not drawn) [Example 4, 8-[3-(2-Fluoropyridin-3-yl)phenyl]-8-[1-(2,2,2-trifluoroethyl)-1H-pyrazol-4-yl]-2,3,4,8-tetrahydroimidazo[1,5-a]pyrimidin-6-amine]	5.29	106 to 116	7.10	–
NC1=NC(c2ccc(OC(F)(F)F)cc2)(c2cccc(-c3cncc(F)c3)c2)C2=NCCON12 (stereo not drawn) [Example 6, 8-[3-(5-Fluoropyridin-3-yl)phenyl]-8-[4-(trifluoromethoxy)phenyl]-2,8-dihydro-3H-imidazo[1,5-b][1,2,4]oxadiazin-6-amine]	5.92	120 to 135	7.30	–
CCc1cc(C2(c3cccc(-c4cccnc4F)c3)N=C(N)N3CCCN=C32)cc(CC)n1 (stereo not drawn) [Example 2, 8-(2,6-Diethylpyridin-4-yl)-8-[3-(2-fluoropyridin-3-yl)phenyl]-2,3,4,8-tetrahydroimidazo[1,5-a]pyrimidin-6-amine]	–	174 to 176	8.00	38

More lines, now with the values ahead:

pIC50 (human BACE2)	melting point [°C]	pIC50 (human BACE1)	inhibition at 25 µM (human BACE2) [%]	SMILES
5.69	102 to 117	7.52	–	NC1=NC(c2ccc(OC(F)(F)F)cc2)(c2cccc(-c3cccnc3F)c2)C2=NOCCN12 (stereo not drawn) [Example 5, 8-[3-(2-Fluoropyridin-3-yl)phenyl]-8-[4-(trifluoromethoxy)-phenyl]-3,4-dihydro-8H-imidazo[5,1-c][1,2,4]oxadiazin-6-amine]
–	125 to 131	6.28	51	NC1=NC(c2ccncc2)(c2cccc(-c3cccnc3F)c2)C2=NCCCN12 (stereo not drawn) [Example 1, 8-[3-(2-Fluoropyridin-3-yl)phenyl]-8-pyridin-4-yl-2,3,4,8-tetrahydroimidazo[1,5-a]pyrimidin-6-amine]
